Data on 4 molecules can be found in article PMC6395926, “Mass Balance and Drug Interaction Potential of Intravenous Eravacycline Administered to Healthy Subjects” (Antimicrobial Agents and Chemotherapy, 2019).

Structures are written as SMILES. “Also recorded” adds a separate entry of the source. Like-named read-outs stand apart in the source and are kept apart here.

Details of data set [1]: species or system human. The settings on record: human, in vivo. Here is the method: (§1) (iii) Study assessments. Blood samples for PK analysis of eravacycline and its metabolites, TP-498, TP-6208, and TP-034, were collected predose and 1, 2, 4, 6, 8, 12, 24, 36, and 48 h after the start of the i.v. infusion on day 1 and day 10 (itraconazole) or day 1 and day 17 (rifampin). Safety assessments included AEs, clinical laboratory safety tests (hematology, serum chemistry, electrolytes, coagulation, urinalysis, and lipid profile), vital signs, physical examinations, and 12-lead ECG.

Data set [2] in a line: Drug interaction study with rifampin (CYP3A4 inducer): plasma PK of i.v. eravacycline and metabolites. The class given is in vivo, human. The conditions noted are these: in vivo. Here is the method:
Two single-center, open-label studies were conducted to evaluate the effects of itraconazole (CYP3A4 inhibitor) and rifampin (CYP3A4 inducer) on the pharmacokinetics of i.v. eravacycline in healthy subjects.
(ii) Study design. Each study included a 28-day screening period, a 13-day treatment period (19 days for rifampin), and an end-of-study visit 2 weeks after the last dose of study drug. […] For the itraconazole study, 200 mg oral itraconazole was administered q12h on day 8 and q24h on days 9 and 10. For the rifampin study, 600 mg oral rifampin was administered q24h from day 8 to day 17. All study treatments were administered in the fasting state.
as §1
Concentrations of eravacycline, TP-498, and TP-6208 in human plasma samples were measured by LC-tandem MS after solid-phase extraction over a calibration range of 5.00 to 500 ng/ml. The LLOQ for eravacycline, TP-498, TP-6208, and TP-034 in human plasma was 5.00 ng/ml. Samples with eravacycline initial concentrations above the upper limit of quantification (500 ng/ml) were diluted appropriately with control blank human plasma and reanalyzed. There was no interference seen when human plasma was fortified with eravacycline, TP-498, TP-6208, and either itraconazole or rifampin.
(iv) Pharmacokinetic analysis. PK assessments included Cmax, Tmax, AUC0–24, AUC0–t, t1/2, CL, and Vss. Actual sampling time was used for PK calculations. PK parameters were derived by noncompartmental analysis. Descriptive statistics were calculated for analyte concentrations at each evaluation time point and for all quantitative PK parameters of eravacycline, TP-498, TP-6208, and TP-034 for day 1 and day 10 (day 17 for rifampin). The effect of itraconazole or rifampin on the PK profile of i.v. eravacycline was evaluated by comparing log-transformed PK parameters (Cmax and AUC0–t) associated with the administration of study drug on day 1 and day 10 (itraconazole) or day 1 and day 17 (rifampin) using paired t tests. The ratio and 90% confidence interval (CI) were presented after back transformation to the original scale. Pharmacokinetic variables were calculated using WinNonlin Professional.

Data set [3] is described as follows: Mass balance study: plasma PK of eravacycline, TP-498 and TP-6208 (LC-MS). The class given is in vivo, human. The settings on record: in vivo, iv. The text has this:
(ii) Study design. This was a single-center, open-label study of a single i.v. dose of [^14C]eravacycline to assess the mass balance recovery and PK of eravacycline. The primary objectives were to determine mass balance recovery, determine routes and rates of excretion, provide metabolite profiling and structural identification, and assess the PK of radioactivity in plasma and whole blood. Subjects were screened for inclusion in the study, including a detailed medical history, physical examination, and laboratory evaluations, in the 28 days before dosing. Eligible subjects were admitted to the clinical study unit at approximately 21:00 on the evening prior to study drug administration (day −1) and remained on site until 240 h postdose for collection of urine, feces, and blood samples. After an overnight fast, each subject received 60 mg [^14C]eravacycline containing not more than 3.8 MBq (105 μCi) ^14C as a single i.v. infusion over 60 min.
(vi) Study assessments. PK parameters were determined for total radioactivity in plasma and whole blood. Eravacycline, TP-498, and TP-6208 concentrations in plasma were quantified using a validated assay with internal standards. The following PK parameters were determined: Cmax, Tmax, time from dosing before the first quantifiable concentration in a concentration versus time profile (Tlag), AUC0–t, AUC0–24, AUC0–∞, the percentage of AUC0–∞ extrapolated beyond the time of the last measurable concentration (AUC%extrap), the slope of the apparent terminal phase (lambda-z), the apparent terminal half-life (t1/2), the mean residence time estimated between time zero and infinity (MRT0-∞), the apparent volume of plasma cleared of analyte per unit time (CL), and the volume of distribution of analyte at steady state (Vss).
Plasma concentrations of eravacycline, TP-498, and TP-6208 were measured by liquid chromatography with tandem mass spectrometry (LC-MS). The LLOQ was 5 ng/ml for eravacycline, TP-498, and TP-6208. The calibration ranges for eravacycline, TP-498, and TP-6208 in human urine were 50 to 10,000 ng/ml, 50 to 1,000 ng/ml, and 20 to 1,000 ng/ml, respectively. The calibration ranges for eravacycline, TP-498, and TP-6208 in human plasma were 5 to 500 ng/ml.
(viii) Study analysis. Descriptive statistics (mean, median, standard deviation [SD], percent coefficient of variation [%CV], minimum, maximum, number, geometric mean, and geometric %CV) were calculated for all concentration data. Pharmacokinetic parameters were calculated using Phoenix WinNonlin v6.3 (Certera USA, Inc.).

The conditions of data set [4]: in vitro; previous studies, no reference given; cited from earlier work.
Data set [5] is described as follows: Itraconazole drug interaction study: safety/tolerability. Type of data set: in vivo, human. The settings on record: itraconazole treatment period, 3 of 11 subjects. Here is the method: as §1

Take `CO[C@H]1/C=C/O[C@@]2(C)Oc3c(C)c(O)c4c(O)c(c(/C=N/N5CCN(C)CC5)c(O)c4c3C2=O)NC(=O)/C(C)=C\C=C\[C@H](C)[C@H](O)[C@@H](C)[C@@H](O)[C@@H](C)[C@H](OC(C)=O)[C@@H]1C` [rifampin, reference compound]: in data set [1], the “subjects who experienced an AE” value amounted to 8.3%.

With `CN(C)[C@H]1C(O)=C(C(N)=O)C(=O)[C@@]2(O)C(O)=C3C(=O)c4c(O)c(NC(=O)CN5CCCC5)cc(F)c4C[C@H]3C[C@@H]12` [TP-498], the “Mean Cmax and AUC0–24 when eravacycline was dosed with or without rifampin” value in data set [2] is recorded as “similar”. Also, in data set [3] (human), the CLR came out at 85.7 ± 35.5 mL/min; the Cmax is 20.4 ± 18.9 ng/mL; the “geometric mean AUC0–t, fold lower than that of eravacycline” value was 13.5 fold; the “geometric mean Cmax, fold lower than that of eravacycline” value is on record as 53.9 fold. Besides, the “time postdose plasma concentrations were quantifiable” value in data set [3] fell in the range of 37 to 49 h. The antimicrobial activity entry in data set [4] is listed as “no in vitro antimicrobial activity; also recorded: None exhibit antimicrobial activity”.

Regarding `CN(C)[C@@H]1C(=O)C(C(N)=O)=C(O)[C@@]2(O)C(=O)C3=C(O)c4c(O)c(N5C(=O)CN6CCCC65)cc(F)c4C[C@H]3C[C@@H]12` (some centres unmarked) [TP-6208], in data set [3] (human), the “AUC0–∞” value is 1780 ± 26.9 (n = 2) h·ng/ml; the Cmax came to 42.8 ± 28.9 ng/mL; the “geometric mean AUC0–t, fold lower than that of eravacycline” value is 2.9 fold; the “geometric mean AUC0–∞, fold lower than that of eravacycline” value amounted to 2.5 fold. Further, in data set [3] (human), the “geometric mean Cmax, fold lower than that of eravacycline” value came to 25.7 fold and the t1/2 was 18.8 ± 17.8 (n = 2) h. Moreover, in data set [3], the “time postdose plasma concentrations were quantifiable” value was 49 to 73 h. Also, in data set [4], the antimicrobial activity result is on record as “no in vitro antimicrobial activity; also recorded: None exhibit antimicrobial activity”.

As for `CCC(C)n1ncn(-c2ccc(N3CCN(c4ccc(OCC5COC(Cn6cncn6)(c6ccc(Cl)cc6Cl)O5)cc4)CC3)cc2)c1=O` (centres unmarked) [itraconazole, reference compound], in data set [5], the “subjects who experienced an AE” value is given as 27.3%.

As a reminder, the Cmax is the maximum level reached in the sampled fluid or tissue.
